Where “and” joins values, the source holds several entries; their conditions need not be identical. Equal values may be shown once. Read-outs that look alike come from different tables or passages of the source. Where a SMILES comes first, the peptide text is derived from it. Where no end group is shown, it is not given here. [ ]: non-standard residue; d: D form. The star is where a group is joined. Phe(4-NO2) = N[C@@H](Cc1ccc([N+](=O)[O-])cc1)C(=O)O; Phe(4-NH2) = Nc1ccc(C[C@H](N)C(=O)O)cc1; Desaminotyrosyl = O=C(CCc1ccc(O)cc1)*

The target in assay [1] is T1, herpes simplex viral ribonucleotide reductase (Human herpesvirus 1, UniProt P08543).
T1 construct: endogenous in cells
T1 sequence (P08543 whole entry): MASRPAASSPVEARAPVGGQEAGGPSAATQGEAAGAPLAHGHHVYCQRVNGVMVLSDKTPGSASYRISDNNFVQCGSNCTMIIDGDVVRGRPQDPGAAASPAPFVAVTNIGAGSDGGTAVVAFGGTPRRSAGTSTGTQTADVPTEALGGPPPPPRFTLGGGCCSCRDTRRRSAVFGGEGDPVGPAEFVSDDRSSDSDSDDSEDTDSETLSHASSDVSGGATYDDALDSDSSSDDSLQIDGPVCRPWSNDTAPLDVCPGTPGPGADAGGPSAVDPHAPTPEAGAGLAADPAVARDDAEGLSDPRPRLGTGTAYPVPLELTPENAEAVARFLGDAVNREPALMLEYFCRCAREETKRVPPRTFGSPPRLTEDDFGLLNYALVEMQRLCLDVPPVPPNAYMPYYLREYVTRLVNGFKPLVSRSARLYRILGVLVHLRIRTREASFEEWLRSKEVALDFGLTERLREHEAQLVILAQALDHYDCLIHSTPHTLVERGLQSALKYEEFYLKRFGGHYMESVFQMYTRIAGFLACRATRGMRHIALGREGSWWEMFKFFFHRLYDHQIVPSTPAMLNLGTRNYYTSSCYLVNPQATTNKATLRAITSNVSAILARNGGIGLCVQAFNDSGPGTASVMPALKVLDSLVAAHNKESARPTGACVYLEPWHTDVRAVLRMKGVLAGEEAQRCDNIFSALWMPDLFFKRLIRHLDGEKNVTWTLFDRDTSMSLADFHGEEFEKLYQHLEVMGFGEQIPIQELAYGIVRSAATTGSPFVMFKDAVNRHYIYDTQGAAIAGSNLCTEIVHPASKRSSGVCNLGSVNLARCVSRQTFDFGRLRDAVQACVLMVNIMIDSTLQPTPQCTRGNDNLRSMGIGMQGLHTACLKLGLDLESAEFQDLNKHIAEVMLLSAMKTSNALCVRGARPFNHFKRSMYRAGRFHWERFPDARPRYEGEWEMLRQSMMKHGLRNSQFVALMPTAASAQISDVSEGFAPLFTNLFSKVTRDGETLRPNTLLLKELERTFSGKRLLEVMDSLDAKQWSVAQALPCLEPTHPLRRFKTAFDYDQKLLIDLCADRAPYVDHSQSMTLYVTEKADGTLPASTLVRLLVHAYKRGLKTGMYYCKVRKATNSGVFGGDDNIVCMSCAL
Put plainly: biochemical. Type of assay: biochemical, herpes simplex virus.

Assay [2] concerns the target ribonucleotide reductase from HSV-1 (strain F)-infected BHK-21/C13 cells (Human herpesvirus 1, UniProt P08543). As to the kind of experiment: HSV-1 ribonucleotide reductase (CDP reductase) inhibition. The note with it: 75 μg protein extract.
Setting [3] is: read-out: IC50 (concentration producing 50% of the maximal inhibition of enzyme activity), 75 μg enzyme preparation (21.6 units mg^-1), mean of four assays.
Where [4] appears, read: 75 μg enzyme preparation (21.6 units mg^-1), mean of four assays.
The mark [5] stands for this setting: read-out: IC50 (concentration producing 50% of the maximal inhibition of enzyme activity).
Where [6] appears, read: IC50 (concentration producing 50% of the maximal inhibition of enzyme activity).

ribonucleotide reductase from HSV-1 (strain F)-infected BHK-21/C13 cells, sequence (P08543 whole entry): as above

As for `CC[C@H](C)[C@H](NC(=O)[C@@H](NC(=O)CCc1ccc(O)cc1)C(C)C)C(=O)N[C@@H](CC(N)=O)C(=O)N[C@@H](CC(=O)O)C(=O)N[C@@H](CC(C)C)C(=O)O` [desamino-Tyr--Val--Ile--Asn--Asp--Leu--OH] (Desaminotyrosyl-VINDL-OH), the IC50 in assay [1] came to 17 µM.
Consider H-YTMLVVDDL-OH [EBV 7-15], for which the “% CDP REDUCTASE ACTIVITY” value in assay [2] (10 μM peptide) came to 100%; in assay [2] (25 μM peptide) it was 100%; in assay [2] (50 μM peptide) it was 100%; in assay [2] (100 μM peptide) it was 70%; in assay [2] (400 μM peptide), 10%.
“Ac-YAGTVIQDL-OH [Ac--Tyr--Ala--Gly--Thr--Val--Ile--Gln--Asp--Leu--OH]” displayed an IC50 in assay [1] of 36.5 µM.
Take “H-YAGPVVNDL-OH [H--Tyr--Ala--Gly--Pro--Val--Val--Asn--Asp--Leu--OH]”: the IC50 in assay [1] (setting [3]) is 48 µM.
On to `CC[C@H](C)[C@H](NC(=O)[C@H](CC(=O)O)NC(=O)[C@H](CC(N)=O)NC(=O)[C@@H](NC(=O)[C@@H](NC(=O)[C@H](C)NC(=O)CNC(=O)[C@H](C)NC(=O)[C@H](Cc1ccc(O)cc1)NC(=O)[C@@H](N)Cc1ccc(N)cc1)C(C)C)C(C)C)C(=O)O` [H--(4-NH2 -Phe)--Tyr--Ala--Gly--Ala--Val--Val--Asn--Asp--Ile--OH] (H-[Phe(4-NH2)]YAGAVVNDI-OH), for which, in assay [1] (setting [4]), the IC50 was found to be 15 µM.
With `CC(C)C[C@H](NC(=O)[C@H](CC(=O)O)NC(=O)[C@H](CC(N)=O)NC(=O)[C@@H](NC(=O)[C@@H](NC(=O)[C@H](C)NC(=O)CNC(=O)[C@H](C)NC(=O)[C@@H](N)Cc1ccc(O)cc1)C(C)C)C(C)C)C(N)=O` [H--Tyr--Ala--Gly--Ala--Val--Val--Asn--Asp--Leu--NH2], in assay [1] (setting [5]), the IC50 stood at 190 µM.
As for “Ac-YVINDL-OH [Ac--Tyr--Val--Ile--Asn--Asp--Leu--OH]”, the IC50 in assay [1] is 27 µM.
In turn, “H-YAGTVINDL-OH [H--Tyr--Ala--Gly--Thr--Val--Ile--Asn--Asp--Leu--OH]” returned an IC50 in assay [1] (setting [4]) of 15 µM.
For “Ac-YAGTVINDL-OH [Ac--Tyr--Ala--Gly--Thr--Val--Ile--Asn--Asp--Leu--OH]”, the IC50 in assay [1] (setting [6]) is 2 µM and 5.2 µM.
As for “Ac-YAATVINDL-OH [Ac--Tyr--Ala--Ala--Thr--Val--Ile--Asn--Asp--Leu--OH]”, the IC50 in assay [1] was 15 µM.
As to `COc1ccc(C[C@H](N)C(=O)N[C@@H](C)C(=O)NCC(=O)N[C@@H](C)C(=O)N[C@H](C(=O)N[C@H](C(=O)N[C@@H](CC(N)=O)C(=O)N[C@@H](CC(=O)O)C(=O)N[C@@H](CC(C)C)C(=O)O)C(C)C)C(C)C)cc1` [H--Tyr(OMe)--Ala--Gly--Ala--Val--Val--Asn--Asp--Leu--OH], in assay [1] (setting [5]), the IC50 is 88 µM.
For the molecule `COc1ccc(C[C@H](NC(C)=O)C(=O)N[C@@H](C)C(=O)NCC(=O)N[C@@H](C)C(=O)N[C@H](C(=O)N[C@H](C(=O)N[C@@H](CC(N)=O)C(=O)N[C@@H](CC(=O)O)C(=O)N[C@@H](CC(C)C)C(=O)O)C(C)C)C(C)C)cc1` [Ac--Tyr(OMe)--Ala--Gly--Ala--Val--Val--Asn--Asp--Leu--OH], in assay [1] (setting [3]), the IC50 came out at 40 µM.
For the molecule `CC(=O)N[C@H](Cc1ccc(O)cc1)C(=O)N[C@@H](C)C(=O)NCC(=O)N[C@@H](C)C(=O)N[C@H](C(=O)N[C@H](C(=O)N[C@@H](CC(N)=O)C(=O)N[C@@H](CC(=O)O)C(=O)N[C@@H](CC(C)C)C(=O)O)C(C)C)C(C)C` [Ac--D--Tyr--Ala--Gly--Ala--Val--Val--Asn--Asp--Leu--OH], the IC50 in assay [1] (setting [5]) is 165 µM.
Molecule “H-YAGAVLDDL-OH [H--Tyr--Ala--Gly--Ala--Val--Leu--Asp--Asp--Leu--OH]” gave an IC50 in assay [1] of 90 µM.
On to “Ac-YAVVNDL-OH [Ac--Tyr--Ala--Val--Val--Asn--Asp--Leu--OH]”, for which, in assay [1] (setting [3]), the IC50 amounted to 330 µM.
H-STSYAGAVVNDL-OH [HSV 4-15]: the “% CDP REDUCTASE ACTIVITY” value is 87% in assay [2] (10 μM peptide); 71% in assay [2] (25 μM peptide); 47% in assay [2] (50 μM peptide); 18% in assay [2] (100 μM peptide); 11% in assay [2] (400 μM peptide).
In assay [1] (setting [4]), `CC(C)C[C@H](NC(=O)[C@H](CC(=O)O)NC(=O)[C@H](CC(N)=O)NC(=O)[C@@H](NC(=O)[C@@H](NC(=O)[C@H](C)NC(=O)CNC(=O)[C@H](C)NC(=O)[C@H](Cc1ccc(O)cc1)NC(=O)CCCCCCCN)C(C)C)C(C)C)C(=O)O` [NH2 (CH2)7 CO--Tyr--Ala--Gly--Ala--Val--Val--Asn--Asp--Leu--OH] displayed an IC50 of 12.3 µM.
“H-HAGAVVNDL-OH [H--His--Ala--Gly--Ala--Val--Val--Asn--Asp--Leu--OH]” had an IC50 in assay [1] (setting [4]) of 400 µM.
`CC[C@H](C)[C@H](NC(=O)[C@@H](NC(=O)[C@H](Cc1ccc(OC)cc1)NC(C)=O)C(C)C)C(=O)N[C@@H](CC(N)=O)C(=O)N[C@@H](CC(=O)O)C(=O)N[C@@H](CC(C)C)C(=O)O` [Ac--Tyr(OMe)--Val--Ile--Asn--Asp--Leu--OH] (Ac-Y(Me)VINDL-OH) showed an IC50 in assay [1] of 24 µM.
As to “H-KYAGAVVNDL-OH [H--Lys--Tyr--Ala--Gly--Ala--Val--Val--Asn--Asp--Leu--OH]”, in assay [1] (setting [3]), the IC50 amounted to 68 µM.
Consider “Ac-Y(Ac)AGFVINDL [Ac--Tyr(OAc)--Ala--Gly--Phe--Val--Ile--Asn--Asp--Leu--OH]”, for which the IC50 in assay [1] (setting [4]) came out at 14 µM.
Regarding “Ac-YGAVVNDL-OH [Ac--Tyr--Gly--Ala--Val--Val--Asn--Asp--Leu--OH]”, the IC50 in assay [1] (setting [5]) turned out to be 150 µM.
“Ac-YVVNDL-OH [Ac--Tyr--Val--Val--Asn--Asp--Leu--OH]” registered an IC50 in assay [1] of 31 µM.
Consider `CC[C@H](C)[C@H](NC(=O)[C@H](CC(=O)O)NC(=O)[C@H](CC(N)=O)NC(=O)[C@@H](NC(=O)[C@@H](NC(=O)[C@H](C)NC(=O)CNC(=O)[C@H](C)NC(=O)[C@H](Cc1ccc(O)cc1)NC(=O)[C@@H](N)Cc1ccc([N+](=O)[O-])cc1)C(C)C)C(C)C)C(=O)O` [H--(4-NO2 -Phe)--Tyr--Ala--Gly--Ala--Val--Val--Asn--Asp--Ile--OH] (H-[Phe(4-NO2)]YAGAVVNDI-OH), for which, in assay [1] (setting [4]), the IC50 worked out at 6.8 µM.
Same read-out and setting: the figure for “H-YSGAVVNDL-OH [H--Tyr--Ser--Gly--Ala--Val--Val--Asn--Asp--Leu--OH]” is 90 µM.
As to “H-YAVVNDL-OH [H--Tyr--Ala--Val--Val--Asn--Asp--Leu--OH]”, the IC50 in assay [1] (setting [5]) came to 340 µM.
Take “H-FAGAVVNDL-OH [H--Phe--Ala--Gly--Ala--Val--Val--Asn--Asp--Leu--OH]”: the IC50 in assay [1] is 68 µM.
As for “Ac-YAGVVINDL-OH [Ac--Tyr--Ala--Gly--Val--Val--Ile--Asn--Asp--Leu--OH]”, the IC50 in assay [1] (setting [6]) turned out to be 4.3 µM.
The same measure, in the same setting: the figure for “Ac-YSGTVINDL-OH [Ac--Tyr--Ser--Gly--Thr--Val--Ile--Asn--Asp--Leu--OH]” is 1.9 µM.
Regarding “Ac-YSVINDL-OH [Ac--Tyr--Ser--Val--Ile--Asn--Asp--Leu--OH]”, the IC50 in assay [1] worked out at 77 µM.
For the molecule `CC(=O)N[C@@H](Cc1ccc(O)cc1)C(=O)N[C@@H](C)C(=O)NCC(=O)N[C@@H](C)C(=O)N[C@H](C(=O)N[C@H](C(=O)N[C@@H](CC(N)=O)C(=O)N[C@@H](CC(=O)O)C(=O)N[C@@H](CC(C)C)C(N)=O)C(C)C)C(C)C` [Ac--Tyr--Ala--Gly--Ala--Val--Val--Asn--Asp--Leu--NH2], the IC50 in assay [1] (setting [3]) came out at 76 µM.
For the molecule `CC(=O)N[C@@H](Cc1ccc(O)cc1)C(=O)N[C@@H](C)C(=O)NCC(=O)N[C@@H](C)C(=O)N[C@H](C(=O)N[C@H](C(=O)N[C@@H](CC(N)=O)C(=O)N[C@@H](CC(=O)O)C(=O)N[C@@H](CC(C)C)C(=O)O)C(C)C)C(C)C` [Ac--Tyr--Ala--Gly--Ala--Val--Val--Asn--Asp--Leu--OH], the IC50 in assay [1] (setting [5]) is 20 µM.
In turn, “Ac-FVINDL-OH [Ac--Phe--Val--Ile--Asn--Asp--Leu--OH]” had an IC50 in assay [1] of 42 µM.
Turning to `CC(=O)N[C@@H](Cc1ccc(O)cc1)C(=O)N[C@H](C)C(=O)NCC(=O)N[C@@H](C)C(=O)N[C@H](C(=O)N[C@H](C(=O)N[C@@H](CC(N)=O)C(=O)N[C@@H](CC(=O)O)C(=O)N[C@@H](CC(C)C)C(=O)O)C(C)C)C(C)C` [Ac--Tyr--D--Ala--Gly--Ala--Val--Val--Asn--Asp-- Leu--OH], the IC50 in assay [1] (setting [5]) stood at 230 µM.
In assay [1], “H-YVVNDL-OH [H--Tyr--Val--Val--Asn--Asp--Leu--OH]” yielded an IC50 of 81 µM.
On to “H-YAPAVINDL-OH [H--Tyr--Ala--Pro--Ala--Val--Ile--Asn--Asp--Leu--OH]”, for which the IC50 in assay [1] turned out to be 37 µM.
The same measure, in the same setting: the figure for “H-YAGAVVNDI-OH [H--Tyr--Ala--Gly--Ala--Val--Val--Asn--Asp--Ile--OH]” is 110 µM; for “Ac-YAGTIVNDL-OH [Ac--Tyr--Ala--Gly--Thr--Ile--Val--Asn--Asp--Leu--OH]” it is 4.9 µM.
For “Ac-YAGFVINDL-OH [Ac--Tyr--Ala--Gly--Phe--Val--Ile--Asn--Asp--Leu--OH]”, the IC50 in assay [1] (setting [4]) turned out to be 4.2 µM.

(Values after US5066783A, “Antiviral peptides and means for treating herpes infections” (priority 1988, dated 1991).)
